Legend:
HTLA-ER cells [1] = test: Cell viability assay (CellTiter 96 AQueous One Solution) on etoposide-resistant HTLA-ER NB cells; format: cell-based, human; details: average IC50 on three human normal oral cell lines (ref 69) / IC50 on HTLA-ER after 24 h (ref 58)
Excerpt: HTLA-230 human stage-IV NB cells were kindly provided by Dr. L. Raffaghello (G. Gaslini Institute, Genoa, Italy). The HTLA-ER cells were selected by treating HTLA-230 parental cells for six months with increasing concentrations of etoposide, as previously reported. Both cell populations were maintained in RPMI 1640 medium (Euroclone Spa, Pavia, Italy) supplemented with 10% fetal bovine serum (FBS, Euroclone Spa, Pavia, Italy), 1% L-glutamine (Euroclone Spa, Pavia, Italy), and 1% Penicillin/Streptomicin (Euroclone Spa, Pavia, Italy) and grown in standard conditions (37 °C humidified incubator with 5% CO2).
To determine the cytotoxic effects of BPPB, in vitro time- and dose-dependent experiments were carried out. Cells were first treated for 24, 48, and 72 h, with increasing concentrations (0.5–50 µM) of the compound. In a subsequent series of the experiments, cells were treated for 24, 48, and 72 h with increasing concentration of BPPB in the range of 0.1–2 µM. […] Cell cultures were carefully monitored before and during the experiments to ensure optimal cell density.
Cell viability was determined by using the CellTiter 96® AQueous One Solution Cell Proliferation Assay (Promega, Madison, WI, USA), as previously described. Briefly, cells (10,000 cells/well) were seeded into 96-well plates (Corning Incorporated, Corning, NY, USA) and then treated. Next, cells were incubated with 20 µL of CellTiter, and the absorbance at 490 nm was recorded using a microplate reader (EL-808, BIO-TEK Instruments Inc., Winooski, VT, USA). IC50 was evaluated by GraphPad Prism 5.4.2 Software (GraphPad Software, Boston, MA, USA).
Results are expressed as the means ± S.D. of at least four independent experiments in which six different wells were analyzed every time for each experimental condition. The statistical significance of differences was determined by two-way analysis of variances (ANOVA) followed by Tukey’s multicomparison test using GraphPad Prism 8.0 (GraphPad Software v8.0, San Diego, CA, USA); p < 0.05 was considered statistically significant. Asterisks or other indicators (see Figures captions) indicate the following p-value ranges: p > 0.05 no symbols, * = p < 0.05, ** = p < 0.01, *** = p < 0.001, **** = p < 0.0001.

HTLA-ER cells [2] = details: cited from earlier work
[3] = system: HTLA-230 human stage-IV NB cells; details: 100 µM for 24 h; cited from earlier work

SMILES: COc1cc([C@@H]2c3cc4c(cc3[C@@H](O[C@@H]3O[C@@H]5CO[C@@H](C)O[C@H]5[C@H](O)[C@H]3O)[C@H]3COC(=O)[C@H]23)OCO4)cc(OC)c1O [ETO, etoposide]
- Etoposide SI for HTLA-ER NB cells (HTLA-ER cells [1]): 0.32
- Cell viability HTLA-ER (HTLA-ER cells [2]; 100 µM for 24 h): over 80%
- IC50 (HTLA-ER cells [2]; 24 h of exposure, read-out: Extrapolated IC50 on HTLA-ER): 592 µM
- Cell viability HTLA-230 [3]: ~70%
